Source: patent US7588752B2, “Antimicrobial peptides” (The University of Melbourne, priority 1997, dated 2009)
No end group written: not given here.

Assays:
[1] = test system: Staphylococuus carnosus; settings: cited from earlier work
[2] = test system: Escherichia coli; settings: cited from earlier work
[3] = test system: Streptococcus sanguinis (formerly S. sanguis); assay: Antibacterial growth assay in liquid medium, 96 well plates, OD 650 nm; type: cell-based; settings: peaks of tryptic hydrolysate of sodium caseinate
Description: Hydrolysis was terminated by the addition of 1M HCl to pH 4.6. The hydrolysate was centrifuged (11,600 g for 10 min) and then filtered through a 0.2 μm PVDF filter before being applied to a 7 μm C8 (Brownlee) reversed-phase column (4.6×220 mm). The sample was eluted using an Applied Biosystems 140 A Solvent Delivery System to generate a stepwise linear gradient from 0-20% B in 2 min followed by 20-45% B in 40 min at a flow rate of 1 ml/min. Eluant A was 0.1% (v/v) TFA in water and eluant B was 80% (v/v) acetronitrile, 0.1% (v/v) TFA in water. The eluant was monitored using an Applied Biosystems 1000S Diode Array detector at a primary wavelength of 215 nm. Peaks were collected and assayed for antimicrobial activity. […] Growth was determined over a 30 hour period after inoculation by measuring the optical density of the cell suspensions at a wavelength of 650 nm (OD650), using a microplate reader (Biorad, model 450). Growth was determined by subtracting the initial reading, taken immediately after inoculation from the final reading (maximum culture OD). […]
The antibacterial assay was conducted in sterile 96 well plates (Becton Dickinson, Melbourne, Australia). […] Growth of the bacterium was determined as the difference between the final and initial Optical Density (OD) 650 nm readings using a microplate reader (BIORAD, model 450, NSW, Australia). […]

[4] = test system: Streptococcus mutans Ingbritt; type: cell-based; settings: RP-HPLC of endo Glu-C digest of TCA-soluble UF whey
Description: Peaks were collected and assayed for antimicrobial activity. Antimicrobial assays were carried out in liquid growth medium using sterile 96 well plates, each well having a capacity of 300 μL. The growth medium consisted of Todd Hewit broth (36.4 g/L), Yeast Extract (5.0 g/L) with 100 mmol/L potassium phosphate buffer. Routinely the pH of the growth medium was adjusted to 6.3. An inoculum of approximately 1.5×10^2 cells (Streptococcus sanguis, Streptococcus mutans, Porphyromonas gingivalis) that had been harvested during the exponential phase of growth, was added to each well. The ionophore gramicidin (40 μmol/L final concentration) was added to a series of wells as a negative control. Positive controls contained only the inoculum and the growth medium. Growth was determined over a 30 hour period after inoculation by measuring the optical density of the cell suspensions at a wavelength of 650 nm (OD650), using a microplate reader (Biorad, model 450). Growth was determined by subtracting the initial reading, taken immediately after inoculation from the final reading (maximum culture OD). […]

[5] = test system: Klebsiella pneumoniae; settings: concentrations as low as 0.1 μM; injected intravenously before lethal infectious challenge; cited from earlier work

Substance	antimicrobial activity against Streptococcus sanguinis [3]	protective effect in mice against Klebsiella pneumoniae infection [5]	also measured
αs2-casein (fl72-203): antibacterial peptide from bovine αs2-casein released by treating milk with glacial acetic acid (Zucht et al., 1995) (QKFALPQYLKTVYQHQKAMKPWIQPKTKVIPY; UniProt P02663 187-218, looked up, fragment)			inhibition of growth of Staphylococuus carnosus [1]: inhibit the growth; inhibition of growth of Escherichia coli [2]: inhibit the growth
DMPIQAFLLYQQPVLGPVR (bovine) [β-casein (184-202)]	showed activity		
AVESTVATLEDSPEVIESPPE [Ser(P)^149 κ-casein A (138-158)]			antimicrobial activity against S. mutans [4]: exhibited antimicrobial activity
TTMPLW (bovine) [αs1-casein (194-199), casein peptide of Migliore-Samour et al. (1989)]		significant protective effect	
Ser(P)^149 κ-casein (117-169): tryptic casein peptide, genetic variant not specified ((SEQ ID NO:12) and (SEQ ID NO:14))	showed activity		
PGPIPN (bovine) [β-casein (63-68), casein peptide of Migliore-Samour et al. (1989)]		significant protective effect	
